Data set [1] deals with human MSCs. Put plainly: Western blot analysis of TH protein expression after differentiation protocols. In kind it is cell-based. To be noted: result in words. How it is done:
MSC isolation, culture, and characterization: Fresh bone marrow aspirates harvested from the iliac crests of adult donors (age 19-76) were diluted with Hanks' balanced salt solution. Mononuclear cells were isolated by centrifugation in Unisep-Maxi tubes (Novamed, Jerusalem, Israel) by density gradient. The cells were then plated in Dulbecco's Modified Eagle's Medium (DMEM) supplemented with 15% fetal bovine serum (FBS), 2 mM glutamine, 100 μg/ml streptomycin, 100 units/ml penicillin, 12.5 units/ml nystatin (Biological Industries, Beit HaEmek, Israel) in polystyrene plastic 75-cm^2 tissue-culture flasks. After 24 hours, nonadherent cells were removed. The medium was changed every 3-4 days. Adherent cells were cultured to 70%-90% confluence and reseeded at a density of 5,000-10,000 cells/cm^2. The cells were maintained at 37° C. in a humidified 5% CO2 incubator. The MSCs were characterized for their cell-surface phenotype and their mesenchymal differentiation capacity, as previously described (Blondheim er al., 2006, Stem Cells Dev 15:141-164).
(§1) Induction of differentiation: The differentiation protocol was composed of 2 steps. In step 1, cells were transferred to serum-free medium (DMEM) supplemented with 2 mM glutamine, 100 μg/ml streptomycin, 100 units/ml penicillin, 12.5 units/ml nystatin (Biological Industries), N2 supplement (Invitrogen, New Haven, Conn.) and 20 ng/ml fibroblast growth factor 2 and epidermal growth factor (both from R&D Systems, Minneapolis, Minn.) for 48-72 hours. In step 2, the medium was changed to Basic induction medium containing Neurobasal, B27 (both from Invitrogen), in addition to 1 mM dibutyryl cyclic AMP (dbcAMP), 3-isobutyl-1-methyl-xanthine (IBMX), and 200 μM ascorbic acid (all from Sigma, St Louis, Mo.). The following factors were added to the Basic induction medium in different combinations: brain-derived neurotrophic factor (BDNF; 50 ng/ml), glial-derived neurotrophic factor (GDNF;10 ng/ml), neurturin (100 ng/ml), neurotrophin 3 (NT3; 50 ng/ml), and fibroblast growth factor 8 (FGF8; 100 ng/ml (all from Cytolab, Rehovot, Israel); transforming growth factor β3 (TGFβ3; 2 ng/ml), sonic hedgehog (Shh; 500 ng/ml, both from R&D); estrogen (0.1 μM, Sigma); and all-trans-retinoic acid (RA; 0.1 μM, Sigma).
Western blot: Total protein was extracted by suspending the harvested cells in lysis buffer containing 10 mM Tris base (U.S. Biochemical Corporation, Cleveland, Ohio), 5 mM EDTA (Merck, Whitehouse Station, N.J.), 140 mM sodium chloride (NaCl; BioLab, Jerusalem, Israel), 10 mM sodium fluoride (NaF; Sigma), 0.5% NP 40 (U.S. Biochemical Corporation), and 1 μM phenylmethylsulfonyl fluoride (PMSF; Sigma). Following incubation on ice for 30 minutes, the mixture was centrifuged and the supernatants were collected. Protein content was determined by the BCA protein assay kit (Pierce, Rockford, Ill.). Twenty-five micrograms of protein from each sample were subjected to sodium dodecyl-sulfate (SDS)-polyacrylamide gel electrophoresis (PAGE) (12.5% acrylamide), followed by electrophoretic transfer to nitrocellulose membrane (Schleicher & Schuell, Dassel, Germany). Membranes were probed by mouse anti-TH (1:10,000, Sigma) and mouse anti β-actin (1:10,000, Chemicon, Billerica, Mass.) and then by goat anti-mouse horseradish peroxidase conjugated antibody (1:10,000) (Jackson, West Grove, Pa.) and rabbit anti-emerin (1:5,000, Santa Cruz Biotechnology, Santa Cruz, Calif.), followed by goat anti-rabbit horseradish peroxidase conjugated secondary antibody (1:10,000, Sigma). Adequate controls included HeLa cells (ATCC, Manassas, Va.) as negative control and neuroblastoma M17 cells (BE (2)-M17, ATCC) as positive control. Proteins of interest were detected using the enhanced Super Signal® chemiluminescent detection kit (Pierce).

The subject of data set [2] is human MSCs. The data set is described as follows: Cell death in culture on supplementation of antioxidants. Type of data set: cell-based. Conditions: antioxidant supplementation of differentiation medium; data not shown. How it is done:
as §1

The values below come from US20090257987A1, “Method of generating dopamine-secreting cells” (Ramot At Tel Aviv University Ltd., priority 2008, published 2009).

On to `COc1ccc(O)c(C(C)(C)C)c1` [BHA, butylated hydroxyanisole, reference compound], for which the “TH protein expression level normalized to actin” value with human MSCs [1] is “did not facilitate upregulation”. For the same molecule, the “cell death in the culture” value with human MSCs [2] is “higher levels of cell death”.
Consider `CC(=O)N[C@@H](CS)C(=O)O` [NAC, N-acetylcysteine, reference compound], for which, in the data set on human MSCs [1], the “TH protein expression level normalized to actin” value is listed as “did not facilitate upregulation”. Further, the “cell death in the culture” value in the data set with human MSCs [2] is reported as “higher levels of cell death”.
As for “estrogen [+estrogen, reference compound]”, the “TH protein expression level normalized to actin” value with human MSCs [1] is on record as “directly affected the TH protein expression level”.
The same measure, in the same setting: the value for sonic hedgehog [+SHH] was “directly affected the TH protein expression level”.

B1: transforming growth factor β3 (protein, UniProt P10600 301-412, looked up)
Transforming growth factor …: ALDTNYCFRNLEENCCVRPLYIDFRQDLGWKWVHEPKGYYANFCSGPCPYLRSADTTHSTVLGLYNTLNPEASASPCCVPQDLEPLTILYYVGRTPKVEQLSNMVVKSCKCS
notes: transforming growth factor β3 (2 ng/ml) added to the Basic induction medium
In the case of B1, the “TH protein expression level normalized to actin” value in the data set on human MSCs [1] is on record as “directly affected the TH protein expression level”.

B2: glial-derived neurotrophic factor (protein, UniProt P39905 78-211, looked up)
Glial cell line-derived …: SPDKQMAVLPRRERNRQAAAANPENSRGKGRRGQRGKNRGCVLTAIHLNVTDLGLGYETKEELIFRYCSGSCDAAETTYDKILKNLSRNRRLVSDKVGQACCRPIAFDDDLSFLDDNLVYHILRKHSAKRCGCI
notes: glial-derived neurotrophic factor (10 ng/ml) added to the Basic induction medium
Take B2: the “TH protein expression level normalized to actin” value with human MSCs [1] was “directly affected the TH protein expression level”.
